Holding throughout (assay): inhibition of tumour cell growth, NCI panel, 48 h
Assay [1] concerns NCI-H522 lung.
Assay [2] has as its system UO-31 renal.
Assay [3] relates to RXF 393 renal.
For assay [4], the system named is UACC-257 melanoma.
Assay [5] relates to KM12 colon.
In assay [6] the test system is DU-145 prostate.
For assay [7], the system named is NCI-H460 lung.
Assay [8] deals with NCI-H23 lung.
The test system of assay [9] is SK-MEL-5 melanoma.
For assay [10], the system named is OVCAR-8 ovarian.

Molecules are shown by their SMILES. Where “and” joins values, the source holds several entries; their conditions need not be identical. Equal entries are not always repeated.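 Assay format: 96-well plates, 48-hour exposure. GI50 = concentration required for 50% inhibition of growth. TGI: concentration producing complete growth inhibition.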

As to `COc1ccc2c(c1)C(=O)c1c-2n(CCCN)c(=O)c2cc([N+](=O)[O-])ccc12`, the GI50 in assay [1] was under 0.01 µM; in [2], under 0.01 µM; in [3], under 0.01 µM; in assay [4] it was under 0.01 µM; in assay [5], 1.5 µM; in [6], under 0.01 µM. The GI50 in [7] is under 0.01 µM. For the same compound, the TGI in assay [1] is 2.91 µM; in assay [2], 0.0172 µM; in assay [3] it was under 0.01 µM; in assay [4] it was 0.736 µM; in [5], 3.46 µM; in assay [6], 0.0193 µM. In assay [7], this compound yielded a TGI of 0.0146 µM.

As for `Nc1n[nH]c2ccc([C@@H]3Nc4cc5[nH]ncc5cc4[C@H]4C5CCC(C5)[C@@H]34)cc12` (stereo partly specified), the GI50 in assay [1] is 0.396 µM; in assay [2], 0.626 µM; in assay [4] it was 14.9 µM; in [5], 0.393 µM; in assay [6], 0.391 µM; in assay [8], 0.472 µM. Also, the GI50 is 0.368 µM in assay [7], 0.493 µM in [9] and 0.511 µM in [10]. The TGI was over 45.6 µM in [1]; over 100 µM in [2]; over 78.4 µM in [4]; 19.1 µM in assay [5]; over 100 µM in assay [6]; over 71.7 µM in [8]. Further, the TGI was over 41.4 µM in [7], 6.57 µM in assay [9] and over 100 µM in assay [10].

For the compound `COc1ccc2c(c1)/C(=C\c1c[nH]c3ccc(OC)cc13)C(=O)N2`, the GI50 was 2.27 µM in [1]; 2.53 µM in assay [2]; 2.91 µM in assay [3]; 0.32 µM in assay [5]; 4.72 µM in assay [6]; 4.46 µM in assay [8]. Moreover, the GI50 is 3.26 µM in assay [7] and 3.02 µM in assay [9]. Also, the TGI in [1] was 7.76 µM; in assay [2], 11.9 µM; in assay [3] it was 9.6 µM; in [5], 10.8 µM; in assay [6], 16.4 µM; in assay [8], 21 µM. Also, the TGI in assay [7] stood at 13.1 µM; in [9] it was 12.5 µM.

In the case of `COc1cccc2c1[C@H]1CO[C@H]3C4C[C@H](C(=O)O)C([C@@H](C2)N13)N4C` (stereo partly specified), the GI50 is 0.0497 µM in assay [1]; 0.136 µM in assay [3]; 0.703 µM in [4]; 5.21 µM and 0.685 µM in assay [5]; 0.564 µM in [8]; 1.36 µM in assay [7]. The GI50 in assay [9] is 0.588 µM; in assay [10], 2.81 µM and 0.888 µM. Moreover, the TGI in assay [1] is 0.914 µM and 0.109 µM; in assay [2], 7.72 µM; in [3] it was 2.42 µM and 0.576 µM; in assay [4] it was 5.15 µM and 1.81 µM; in assay [5], 1.64 µM; in [8], 5.47 µM and 1.63 µM. The TGI in [7] is over 38.2 µM; in [9], 4.31 µM and 1.23 µM; in assay [10] it was 7.05 µM and 34.4 µM.

With `O=C(CCc1nc(=S)[nH][nH]1)Nc1cccc(C(F)(F)F)c1`, the TGI in assay [1], in assay [2], in assay [3], in assay [4], in assay [5] and in assay [8] was over 100 µM throughout. For the same compound, the TGI in [7], in assay [9] and in [10] was over 100 µM throughout.

Take `NCCC(=O)NC(Cc1cnc[nH]1)C(=O)O` (stereo unspecified): the TGI in [1], in assay [2], in assay [4], in [5], in assay [6] and in assay [8] was over 100 µM throughout. The TGI in [7], in assay [9] and in assay [10] was over 100 µM throughout.

On to `CCC[CH2][Sn]([CH2]CCC)([O]C(=O)/C=C/c1ccccc1F)[O]C(=O)/C=C/c1ccccc1F`, for which the GI50 in assay [1] was 0.0798 µM; in assay [2], 0.775 µM; in [3], 0.256 µM; in assay [4], 0.465 µM; in [5] it was 1.38 µM; in assay [8] it was 0.198 µM. Further, the GI50 in [7] is 1.64 µM; in assay [9], 0.985 µM; in [10], 0.98 µM. Moreover, the TGI stood at 0.185 µM in [1]; 2.06 µM in [2]; 0.95 µM in [3]; 1.76 µM in assay [4]; 2.72 µM in assay [5]; 0.56 µM in assay [8]. Also, the TGI turned out to be 3.37 µM in assay [7], 2.31 µM in assay [9] and 2.2 µM in assay [10].

Regarding `COCCOCOC(C)(C)[C@H](CCOC(C)=O)O[Si](c1ccccc1)(c1ccccc1)C(C)(C)C`, the TGI in assay [1] is 29.4 µM; in [2], 36.9 µM; in [3] it was 45.7 µM; in [4], 31.1 µM; in assay [5], over 100 µM; in [8] it was 80 µM. Also, the TGI in [7] is 24.1 µM; in [9] it was 23.7 µM; in assay [10], 75.2 µM.

Take `Clc1ccccc1NN(Cc1ccncc1)c1ccccc1Cl`: the TGI was found to be 29.6 µM in [1]; 63.3 µM in [2]; 31.8 µM in assay [3]; 36 µM in assay [5]; 34.8 µM in [6]; 29.2 µM in [8]. For the same compound, the TGI was determined as 27.6 µM in [9] and 29.3 µM in assay [10].

As to `COc1ccc(Cc2nc3ccccc3s2)cc1OC`, the TGI worked out at 32.2 µM in [1]; 30 µM in assay [2]; 34.7 µM in [3]; 32.9 µM in assay [4]; 32.2 µM in [5]; 40.4 µM in [8]. Besides, the TGI in [7] stood at 38.3 µM; in [9], 30.1 µM; in assay [10], 30.9 µM.

As for `Nc1ncnc2c1nnn2C1C=C(CO)C(O)C1O` (stereo unspecified), the TGI in assay [1], in assay [2], in assay [3], in assay [4], in assay [5] and in assay [8] was over 100 µM in each case. Further, the TGI in assay [7], in assay [9] and in [10] was over 100 µM each time.

Source of the values: PubChem BioAssay (NCI).
